The source of these data is publication PMC4830873 (Analytical and Bioanalytical Chemistry, 2016).

Series [1] is described as follows: Rat administration study, detection in plasma after intravenous administration. It counts as in vivo, Wistar. Conditions: for In vivo biotransformation in rats (in words) / Anticipated metabolic products (N- or C-terminally truncated analogues) in rat plasma / Detection of intact GHRH in rat plasma 4 h post-administration / Detection of intact GHRH in rat plasma 8 h post-administration: 0.1 mg intravenous; for In vivo biotransformation in rats (in words): compared to CJC-1295; for Anticipated metabolic products (N- or C-terminally truncated analogues) in rat plasma: plasma 2, 4 and 8 h; for Detection of intact GHRH in rat plasma 4 h post-administration: plasma 4 h post dosing; for Detection of intact GHRH in rat plasma 4 h post-administration / Detection of intact GHRH in rat plasma 8 h post-administration: immunoaffinity purification and LC-HRMS/MS; for Detection of intact GHRH in rat plasma 8 h post-administration: plasma 8 h post dosing (latest collection time point). The method, then: (§1) Sample aliquots of 100 μL of plasma were spiked with 1 μL of ISTD [200 ng/mL] and diluted with 100 μL of PBS before extraction. The multichannel pipette was equipped with up to 12 protein A/G MSIA™-Tips and up to 2000 cycles (one cycle corresponding to one round of liquid aspiration and ejection) were used for distinct sample preparation steps as outlined in Table 2. First, tips were conditioned with PBS before binding 10 μg of the polyclonal GHRH primary antibody (5 μL [2 mg/mL] in 95 μL PBS) to the proteins A/G immobilized on the monolithic adsorbent surface. After washing with PBS to remove unbound antibody residues the target analytes were extracted from plasma by antibody-antigen complex formation prior to three consecutive washing steps with PBS and water (Table 2). The peptides of interest were eluted into LoBind tubes using 3 % of aqueous acetic acid and the eluate was immediately used for injection into the UHPLC-MS(/MS) system. In Fig. 1, a schematic illustration of the relevant principle steps of the MSIA™ purification is presented.
To probe for the in vivo metabolism of Sermorelin, CJC-1293, CJC-1295, and Tesamorelin, 0.1 mg of each GHRH was administered intravenously to three rats (Rattus norvegicus, Wistar, 200–300 g bodyweight at dosing). Urine samples were collected in a metabolic cage prior to and 6, 12, 24, and 30 h after administration but not subjected to analysis in this study. Blood was sampled at 2, 4, and 8 h after injection and specimens were centrifuged at 13,000×g for 20 min to produce serum or EDTA plasma, which was stored at −20 °C until analysis. The animal studies were conducted with approval of the respective ethical committee and the laboratory followed the directive 2010/63/EU of the European parliament and the council of 22 September 2010 on the protection of animals used for scientific purposes.
All intact GHRHs administered intravenously to rats were detected in plasma samples collected 2 h post dosing. In addition, Tesamorelin, CJC-1295, and CJC-1293 were also identified in specimens sampled 4 and 8 h post-administrating (Fig. 3), with the 8-h sample representing the latest collection time point of the study. Here it appears noteworthy that only qualitative results were obtained and that no pharmacokinetic interpretation was conducted. While all analytes were unequivocally identified and differentiated by mass spectrometry, chromatographic separation was accomplished for all target peptides with the exemption of the closely related compounds Sermorelin and CJC-1293 under the chosen analytical conditions.

Series [2] can be described thus: In vitro incubation in fresh human plasma (metabolic fate / degradation). It counts as in vitro ADME. Conditions: fresh human plasma diluted 1:1 with PBS, qualitative; for Degradation products (metabolites) detected after incubation in human plasma: spiked to 10 μg/mL, 30, 60, 120 and 240 min at 37 °C, LC-HRMS full scan before vs after incubation. The method, then: For the investigation of the metabolic fate of GHRHs, in vitro experiments using fresh human plasma samples were conducted, allowing to test for potential degradation products of the studied substances. In accordance to earlier reported methods, aliquots of human plasma samples were diluted (1:1) with PBS [22] and spiked to 10 μg/mL with Sermorelin or Tesamorelin, respectively. After incubation for 30, 60, 120, and 240 min at 37 °C, samples were prepared and analyzed as described elsewhere. Simulating degradation processes of exopeptidases, potential metabolites were considered by eliminating up to three amino acids from both N- and C-terminus. All samples were probed for the anticipated metabolic products as well as for the corresponding intact drugs.
Identifying potential metabolites of Sermorelin and Tesamorelin was accomplished by subtracting and comparing mass spectrometric full scan data of samples prepared before and after incubation of the substrates in fresh human plasma.

Series [3] can be described thus: Human administration study, detection in EDTA plasma after subcutaneous Geref (Sermorelin). It is filed as in vivo. The settings on record: healthy volunteer, 500 μg Geref (Sermorelin) subcutaneous, n = 1. How it is done: as §1
Complementary to the aforementioned rat elimination study, a single dose of 500 μg of Geref (Sermorelin) (Hallandale Pharmacy, FL, USA) was self-administered subcutaneously by a healthy volunteer (78 kg) following the provision of written consent. EDTA plasma samples were collected 30, 90, and 270 min after dosing and the specimens were stored at −20 °C until analysis.
Compared to rat plasma samples collected after the intravenous application of Sermorelin, the human in vivo study (using subcutaneous drug application) indicates a different but also rapid metabolism of the peptide hormone. While the intact drug was not detected in any of the collected plasma samples, the in vitro-derived Sermorelin metabolite GRF3-29 was detected in plasma 30 min post injection (Fig. 4).

A short description of series [4]: fresh human plasma samples diluted (1:1) with PBS. The settings on record: 37 °C, up to 240 min.
A short description of series [5]: EDTA plasma samples after subcutaneous self-administration of Geref (Sermorelin). Conditions: human, up to 270 min.
The test system of series [6] is dipeptidyl peptidase-IV (DPP-IV). The series can be described thus: in vitro. The settings on record: cited from earlier work.
Series [7] can be described thus: rat serum or EDTA plasma after intravenous administration. Conditions: rats (Rattus norvegicus, Wistar), up to 8 h.

Entries after “also recorded” stand apart in the source; their conditions may differ. Where a SMILES comes first, the peptide text is derived from it. [ ]: non-standard residue; d: D form.

Turning to `CC[C@H](C)[C@H](NC(=O)[C@H](C)NC(=O)[C@H](CC(=O)O)NC(=O)[C@@H](C)NC(=O)[C@@H](N)Cc1ccc(O)cc1)C(=O)N[C@@H](Cc1ccccc1)C(=O)N[C@H](C(=O)N[C@@H](CC(N)=O)C(=O)N[C@@H](CO)C(=O)N[C@@H](Cc1ccc(O)cc1)C(=O)N[C@@H](CCCNC(=N)N)C(=O)N[C@@H](CCCCN)C(=O)N[C@H](C(=O)N[C@@H](CC(C)C)C(=O)NCC(=O)N[C@@H](CCC(N)=O)C(=O)N[C@@H](CC(C)C)C(=O)N[C@@H](CO)C(=O)N[C@@H](C)C(=O)N[C@@H](CCCNC(=N)N)C(=O)N[C@@H](CCCCN)C(=O)N[C@@H](CC(C)C)C(=O)N[C@@H](CC(C)C)C(=O)N[C@@H](CCC(N)=O)C(=O)N[C@@H](CC(=O)O)C(=O)N[C@H](C(=O)N[C@@H](CCSC)C(=O)N[C@@H](CO)C(=O)N[C@@H](CCCNC(=N)N)C(N)=O)[C@@H](C)CC)C(C)C)[C@@H](C)O` [CJC-1293, (D-Ala^2)-GRF amide], the “In vivo biotransformation in rats (in words)” value in series [1] is “readily biotransformed”. In series [1] (qualitative), the “Anticipated metabolic products (N- or C-terminally truncated analogues) in rat plasma” value was “none of the anticipated metabolic products; also recorded: no analogous metabolites”, the “Detection of intact GHRH in rat plasma 4 h post-administration” value is recorded as “identified” and the “Detection of intact GHRH in rat plasma 8 h post-administration” value is “identified”.
As to `CC[C@H](C)[C@H](NC(=O)[C@H](C)NC(=O)[C@H](CC(=O)O)NC(=O)[C@@H](C)NC(=O)[C@@H](N)Cc1ccc(O)cc1)C(=O)N[C@@H](Cc1ccccc1)C(=O)N[C@H](C(=O)N[C@@H](CCC(N)=O)C(=O)N[C@@H](CO)C(=O)N[C@@H](Cc1ccc(O)cc1)C(=O)N[C@@H](CCCNC(=N)N)C(=O)N[C@@H](CCCCN)C(=O)N[C@H](C(=O)N[C@@H](CC(C)C)C(=O)N[C@@H](C)C(=O)N[C@@H](CCC(N)=O)C(=O)N[C@@H](CC(C)C)C(=O)N[C@@H](CO)C(=O)N[C@@H](C)C(=O)N[C@@H](CCCNC(=N)N)C(=O)N[C@@H](CCCCN)C(=O)N[C@@H](CC(C)C)C(=O)N[C@@H](CC(C)C)C(=O)N[C@@H](CCC(N)=O)C(=O)N[C@@H](CC(=O)O)C(=O)N[C@H](C(=O)N[C@@H](CC(C)C)C(=O)N[C@@H](CO)C(=O)N[C@@H](CCCNC(=N)N)C(N)=O)[C@@H](C)CC)C(C)C)[C@@H](C)O` [CJC-1295, (D-Ala^2, Gln^8, Ala^15, Leu^27)-GRF amide] (H-Y[dA]DAIFTQSYRKVLAQLSARKLLQDILSR-NH2), in series [1] (qualitative), the “Anticipated metabolic products (N- or C-terminally truncated analogues) in rat plasma” value is listed as “no analogous metabolites”, the “Detection of intact GHRH in rat plasma 4 h post-administration” value is “identified” and the “Detection of intact GHRH in rat plasma 8 h post-administration” value was “identified”.
As to `CC[C@H](C)[C@H](NC(=O)[C@H](C)NC(=O)[C@H](CC(=O)O)NC(=O)[C@H](C)NC(=O)[C@@H](N)Cc1ccc(O)cc1)C(=O)N[C@@H](Cc1ccccc1)C(=O)N[C@H](C(=O)N[C@@H](CC(N)=O)C(=O)N[C@@H](CO)C(=O)N[C@@H](Cc1ccc(O)cc1)C(=O)N[C@@H](CCCNC(=N)N)C(=O)N[C@@H](CCCCN)C(=O)N[C@H](C(=O)N[C@@H](CC(C)C)C(=O)NCC(=O)N[C@@H](CCC(N)=O)C(=O)N[C@@H](CC(C)C)C(=O)N[C@@H](CO)C(=O)N[C@@H](C)C(=O)N[C@@H](CCCNC(=N)N)C(=O)N[C@@H](CCCCN)C(=O)N[C@@H](CC(C)C)C(=O)N[C@@H](CC(C)C)C(=O)N[C@@H](CCC(N)=O)C(=O)N[C@@H](CC(=O)O)C(=O)N[C@H](C(=O)N[C@@H](CCSC)C(=O)N[C@@H](CO)C(=O)N[C@@H](CCCNC(=N)N)C(N)=O)[C@@H](C)CC)C(C)C)[C@@H](C)O` [Sermorelin, GHRH1-29], the “Degradation products (metabolites) detected after incubation in human plasma” value in series [2] is “the earlier reported metabolite (GRF3-29) [7] was observed”. Also, the “Intact drug remaining after incubation in human plasma” value in series [2] (spiked to 10 μg/mL, 37 °C, after a period of 4 h (240 min), LC-HRMS full scan) is “entirely degraded”. Moreover, the “Detection of intact drug in human plasma after subcutaneous application” value in series [3] (EDTA plasma 30, 90 and 270 min after dosing) is on record as “not detected”. Besides, the “Detection window of intact substance in plasma” value in series [1] (0.1 mg intravenous single dose, sampling at 2, 4 and 8 h, qualitative) is given as at most 2 h. In addition, the “In vivo biotransformation in rats (in words)” value in series [1] is given as “readily biotransformed”. Further, the “Anticipated metabolic products (N- or C-terminally truncated analogues) in rat plasma” value in series [1] (qualitative) is “none of the anticipated metabolic products”.
On to `CC/C=C/CC(=O)N[C@@H](Cc1ccc(O)cc1)C(=O)N[C@@H](C)C(=O)N[C@@H](CC(=O)O)C(=O)N[C@@H](C)C(=O)N[C@H](C(=O)N[C@@H](Cc1ccccc1)C(=O)N[C@H](C(=O)N[C@@H](CC(N)=O)C(=O)N[C@@H](CO)C(=O)N[C@@H](Cc1ccc(O)cc1)C(=O)N[C@@H](CCCNC(=N)N)C(=O)N[C@@H](CCCCN)C(=O)N[C@H](C(=O)N[C@@H](CC(C)C)C(=O)NCC(=O)N[C@@H](CCC(N)=O)C(=O)N[C@@H](CC(C)C)C(=O)N[C@@H](CO)C(=O)N[C@@H](C)C(=O)N[C@@H](CCCNC(=N)N)C(=O)N[C@@H](CCCCN)C(=O)N[C@@H](CC(C)C)C(=O)N[C@@H](CC(C)C)C(=O)N[C@@H](CCC(N)=O)C(=O)N[C@@H](CC(=O)O)C(=O)N[C@H](C(=O)N[C@@H](CCSC)C(=O)N[C@@H](CO)C(=O)N[C@@H](CCCNC(=N)N)C(=O)N[C@@H](CCC(N)=O)C(=O)N[C@@H](CCC(N)=O)C(=O)NCC(=O)N[C@@H](CCC(=O)O)C(=O)N[C@@H](CO)C(=O)N[C@@H](CC(N)=O)C(=O)N[C@@H](CCC(N)=O)C(=O)N[C@@H](CCC(=O)O)C(=O)N[C@@H](CCCNC(=N)N)C(=O)NCC(=O)N[C@@H](C)C(=O)N[C@@H](CCCNC(=N)N)C(=O)N[C@@H](C)C(=O)N[C@@H](CCCNC(=N)N)C(=O)N[C@@H](CC(C)C)C(N)=O)[C@@H](C)CC)C(C)C)[C@@H](C)O)[C@@H](C)CC` [Tesamorelin], for which the “Degradation products (metabolites) detected after incubation in human plasma” value in series [2] was “no degradation products of considerable abundance were detected”. Moreover, in series [1] (qualitative), the “Detection of intact GHRH in rat plasma 4 h post-administration” value is recorded as “identified” and the “Detection of intact GHRH in rat plasma 8 h post-administration” value is recorded as “identified”.
For “DAIFTNSYRKVLGQLSARKLLQDIMSR-NH2 [Sermorelin metabolite, GRF3-29, metabolite of Sermorelin originating from the loss of the N-terminal Tyr-Ala-residue]”, the “Detection of metabolite in human plasma 30 min post injection” value in series [3] (EDTA plasma 30 min) was “detected”. Besides, in series [3] (EDTA plasma 90 min), the “Detection of metabolite in human plasma 90 min post injection” value is given as “negative”.
As for YADAIFTNSYRKVLGQLSARKLLQDIMSR-NH2, the cleaved bond entry in series [4] is reported as “Ala2-D3”; in series [5] it was “Ala2-D3, 30 min”; in series [6], “Ala2-D3”.
Turning to “hexenoyl-YADAIFTNSYRKVLGQLSARKLLQDIMSRQQGESNQERGARARL-NH2”, the not cleaved result in series [4] was “no degradation products of considerable abundance were detected”; in series [7], “identified at all sampling points (i.e., up to 8 h post-administration)”.
